Calls of active or inactive are those of the source. The rule behind the calls is not given here.
Experiments:
Histone deacetylase 1 [1] = target: T1, Histone deacetylase 1 (Homo sapiens, UniProt Q13547); assay: Inhibition of HDAC1 (unknown origin)
LNCaP = assay: Cytotoxicity against human LNCAP cells assessed as growth inhibition after 72 hrs by MTS assay; format: functional, cell-based
B16-F10 [2] = assay: Cytotoxicity against mouse B16F10 cells assessed as growth inhibition after 72 hrs by MTS assay; format: functional, cell-based; conditions: B16-F10, 72 h
[3] = target: T2, Protein deacetylase HDAC6 (Homo sapiens, UniProt Q9UBN7); assay: Inhibition of HDAC6 (unknown origin)
T2 sequence (Q9UBN7 whole entry): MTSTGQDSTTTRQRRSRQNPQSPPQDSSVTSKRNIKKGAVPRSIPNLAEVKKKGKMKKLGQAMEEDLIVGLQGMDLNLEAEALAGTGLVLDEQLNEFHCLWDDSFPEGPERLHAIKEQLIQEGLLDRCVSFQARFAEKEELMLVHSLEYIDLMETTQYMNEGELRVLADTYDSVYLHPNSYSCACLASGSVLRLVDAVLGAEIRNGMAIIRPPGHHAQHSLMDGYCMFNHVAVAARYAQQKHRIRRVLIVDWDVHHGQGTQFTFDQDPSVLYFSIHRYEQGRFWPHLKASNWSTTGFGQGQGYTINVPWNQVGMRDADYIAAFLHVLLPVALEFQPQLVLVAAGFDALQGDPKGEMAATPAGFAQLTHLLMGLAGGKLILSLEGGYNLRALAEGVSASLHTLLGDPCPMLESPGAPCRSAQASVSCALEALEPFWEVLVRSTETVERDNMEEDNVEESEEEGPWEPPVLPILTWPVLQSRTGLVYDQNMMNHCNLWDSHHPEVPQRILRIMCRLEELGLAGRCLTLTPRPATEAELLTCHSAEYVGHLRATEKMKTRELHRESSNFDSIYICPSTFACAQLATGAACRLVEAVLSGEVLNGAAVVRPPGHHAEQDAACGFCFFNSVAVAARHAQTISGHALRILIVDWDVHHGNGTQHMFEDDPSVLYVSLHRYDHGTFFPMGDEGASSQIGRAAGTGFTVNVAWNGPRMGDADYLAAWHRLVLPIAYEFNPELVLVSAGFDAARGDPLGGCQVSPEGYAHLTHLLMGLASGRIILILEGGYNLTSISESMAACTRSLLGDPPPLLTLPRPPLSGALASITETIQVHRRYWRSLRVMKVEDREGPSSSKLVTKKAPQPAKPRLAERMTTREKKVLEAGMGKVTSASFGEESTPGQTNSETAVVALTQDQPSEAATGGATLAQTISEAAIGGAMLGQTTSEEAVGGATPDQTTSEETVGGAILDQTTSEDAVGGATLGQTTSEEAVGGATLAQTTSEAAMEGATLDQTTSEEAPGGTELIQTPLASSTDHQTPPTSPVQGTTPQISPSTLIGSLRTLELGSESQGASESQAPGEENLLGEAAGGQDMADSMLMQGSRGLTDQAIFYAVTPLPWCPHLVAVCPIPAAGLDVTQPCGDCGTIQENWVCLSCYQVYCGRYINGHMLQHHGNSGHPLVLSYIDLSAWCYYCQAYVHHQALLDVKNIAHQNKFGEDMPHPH

A-375 = assay: Cytotoxicity against human A375 cells assessed as growth inhibition after 72 hrs by MTS assay; format: functional, cell-based; conditions: A-375, 72 h
Histone deacetylase 1 [4] = target: T1, Histone deacetylase 1; assay: Inhibition of HDAC1 (unknown origin) at 5 uM relative to control
[5] = target: T3, Protein deacetylase HDAC6 (Mus musculus) (UniProt Q9Z2V5); assay: Inhibition of HDAC6 in mouse B16F10 cells assessed as accumulation of acetylated tubulin after 24 hrs by Western blot analysis; format: cell-based
T3 sequence (whole entry): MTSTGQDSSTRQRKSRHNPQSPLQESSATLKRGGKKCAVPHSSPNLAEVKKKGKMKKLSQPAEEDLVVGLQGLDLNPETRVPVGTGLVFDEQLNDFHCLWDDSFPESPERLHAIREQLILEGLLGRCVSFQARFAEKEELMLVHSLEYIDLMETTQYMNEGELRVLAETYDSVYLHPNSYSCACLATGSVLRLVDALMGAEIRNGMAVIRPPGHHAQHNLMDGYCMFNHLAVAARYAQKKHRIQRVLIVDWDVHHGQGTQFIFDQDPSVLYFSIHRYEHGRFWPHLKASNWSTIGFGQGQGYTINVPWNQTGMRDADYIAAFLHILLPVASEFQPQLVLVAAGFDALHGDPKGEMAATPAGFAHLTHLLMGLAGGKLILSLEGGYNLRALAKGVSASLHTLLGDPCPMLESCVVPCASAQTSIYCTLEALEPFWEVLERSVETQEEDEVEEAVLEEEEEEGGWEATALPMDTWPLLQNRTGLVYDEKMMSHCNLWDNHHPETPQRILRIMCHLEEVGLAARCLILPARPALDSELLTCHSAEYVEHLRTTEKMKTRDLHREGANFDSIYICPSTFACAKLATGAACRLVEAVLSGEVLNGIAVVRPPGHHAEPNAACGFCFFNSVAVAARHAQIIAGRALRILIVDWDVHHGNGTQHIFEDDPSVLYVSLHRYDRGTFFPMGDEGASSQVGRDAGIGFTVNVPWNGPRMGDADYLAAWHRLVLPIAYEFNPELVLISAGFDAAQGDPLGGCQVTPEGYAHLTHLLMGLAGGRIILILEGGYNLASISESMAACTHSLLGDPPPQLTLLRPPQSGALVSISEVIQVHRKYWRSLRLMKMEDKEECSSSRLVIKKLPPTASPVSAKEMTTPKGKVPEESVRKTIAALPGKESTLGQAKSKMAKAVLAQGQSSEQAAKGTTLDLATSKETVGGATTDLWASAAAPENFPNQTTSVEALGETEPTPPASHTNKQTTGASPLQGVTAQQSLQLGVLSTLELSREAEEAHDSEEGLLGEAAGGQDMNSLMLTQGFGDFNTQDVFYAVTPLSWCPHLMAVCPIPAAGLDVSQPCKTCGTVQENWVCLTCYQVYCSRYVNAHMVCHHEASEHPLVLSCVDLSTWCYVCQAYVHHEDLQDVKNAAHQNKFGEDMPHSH

B16-F10 [6] = assay: Cytotoxicity against mouse B16F10 cells assessed as growth inhibition at 25 to 50 uM after 72 hrs by MTS assay; format: functional, cell-based
[7] = target: T4, Histone deacetylase 8 (Homo sapiens) (UniProt Q9BY41); assay: Inhibition of HDAC8 (unknown origin) at 5 uM relative to control
T4 sequence (whole entry): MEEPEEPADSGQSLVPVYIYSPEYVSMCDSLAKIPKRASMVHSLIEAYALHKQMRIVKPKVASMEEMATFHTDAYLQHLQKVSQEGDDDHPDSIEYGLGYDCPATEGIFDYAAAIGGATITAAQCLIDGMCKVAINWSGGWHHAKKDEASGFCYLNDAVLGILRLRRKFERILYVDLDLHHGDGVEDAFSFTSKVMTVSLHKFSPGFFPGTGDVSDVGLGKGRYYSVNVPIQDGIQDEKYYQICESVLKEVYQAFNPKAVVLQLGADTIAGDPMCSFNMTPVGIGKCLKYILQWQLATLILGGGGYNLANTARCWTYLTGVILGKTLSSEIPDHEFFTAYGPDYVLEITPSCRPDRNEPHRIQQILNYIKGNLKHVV

[8] = target: T5, Protein deacetylase HDAC6 (Homo sapiens) (UniProt Q9UBN7); assay: Inhibition of HDAC6 (unknown origin) at 5 uM relative to control
T5 sequence (whole entry): T2 sequence (Q9UBN7 whole entry)

[9] = target: T3, Protein deacetylase HDAC6 (Mus musculus); assay: Inhibition of HDAC6 in mouse B16F10 cells assessed as accumulation of acetylated tubulin at 20 uM after 24 hrs by Western blot analysis; format: cell-based
B16-F10 [10] = assay: Cytotoxicity against mouse B16F10 cells assessed as growth inhibition after 72 hrs in presence of verapamil by MTS assay; format: functional, cell-based
[11] = target: T3, Protein deacetylase HDAC6 (Mus musculus); assay: Inhibition of HDAC6 in mouse B16F10 cells assessed as accumulation of acetylated tubulin at 5 to 50 uM after 24 hrs by Western blot analysis; format: cell-based

T1 sequence (Q13547 whole entry): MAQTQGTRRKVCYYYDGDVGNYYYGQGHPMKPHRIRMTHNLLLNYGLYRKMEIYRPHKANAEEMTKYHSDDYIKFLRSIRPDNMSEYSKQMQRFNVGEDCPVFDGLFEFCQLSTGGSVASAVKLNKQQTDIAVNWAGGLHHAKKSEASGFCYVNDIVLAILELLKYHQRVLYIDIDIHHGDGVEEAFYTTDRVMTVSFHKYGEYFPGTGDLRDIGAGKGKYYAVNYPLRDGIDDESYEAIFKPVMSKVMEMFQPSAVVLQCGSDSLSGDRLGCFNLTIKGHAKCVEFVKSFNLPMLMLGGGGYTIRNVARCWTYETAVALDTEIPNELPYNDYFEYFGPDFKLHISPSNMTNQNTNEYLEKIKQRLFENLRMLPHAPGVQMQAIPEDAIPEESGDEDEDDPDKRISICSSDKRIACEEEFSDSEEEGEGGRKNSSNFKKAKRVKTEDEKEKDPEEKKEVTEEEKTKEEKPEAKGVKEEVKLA

Structure (SMILES) | IC50 (Histone deacetylase 1 [1]) [µM] | IC50 (LNCaP) [µM] | IC50 (B16-F10 [2]) [µM] | IC50 [3] [µM] | IC50 (A-375) [µM] | inhibition (Histone deacetylase 1 [4]) [%] | inhibition [5] | growth inhibition (GI) (B16-F10 [6]) | inhibition [7] [%] | inhibition [8] [%] | inhibition [9] | growth inhibition (GI) (B16-F10 [10]) | inhibition [11]
CCN(CC)CCNC(=O)c1ccc(-c2cn(CCCCCC(=O)NO)nn2)cn1 | 0.1 | 10.5 | > 100 | 0.17 | > 100 | – | – | – | – | – | – | – | –
CCN(CC)CCNC(=O)c1ccc(C(=O)ONC(=O)CCCCCn2cc(-c3ccc4cc(OC)ccc4c3)nn2)cc1 | – | 6.46 | 27.8 | – | 25.9 | 100 | Dose-dependent effect | Active | 52 | 99 | – | – | –
COc1ccc2cc(-c3cn(CCCCCC(=O)NO)nn3)ccc2c1 | – | 5.1 | 10.5 | – | 12.6 | – | – | – | – | – | Active | – | –
CCN(CC)CCNC(=O)c1ccc(-c2cn(CCCCCCCC(=O)NO)nn2)cc1 | 0.012 | 3 | 75.9 | 0.027 | > 100 | – | – | – | – | – | – | – | –
O=C(CCCCCCC(=O)Nc1ccccc1)NO | – | – | – | – | – | – | – | – | – | – | Active | – | –
CCN(CC)CCNC(=O)c1ccc(-c2cn(CCCCCCC(=O)NO)nn2)cc1 | 0.0038 | 1.2 | 34.2 | 0.016 | 23.6 | – | – | Active | – | – | – | inactive | Active
CCN(CC)CCNC(=O)c1ccc(-c2cn(CCCCCCC(=O)NO)nn2)cn1 | 0.017 | 1.5 | 55.7 | 0.034 | 47.2 | – | – | – | – | – | – | inactive | –

Reference: ChEMBL document CHEMBL4002642, “Design, synthesis and evaluation of antiproliferative activity of melanoma-targeted histone deacetylase inhibitors” (Bioorg Med Chem Lett, 2017)
